Experimental findings from paper PMC3528106 (Neurobiology of disease, 2012) are described below.

Read-outs that look alike come from different tables or passages of the source.

Series [1] concerns Hct116 cells. The series can be described thus: Cell proliferation inhibition assay, Hct116. In kind it is cell-based, human. To be noted: for IC50: read-out: Proliferation inhibition Hct116, IC50, 72h.
In series [2] the test system is STHdhQ111 striatal cells. The series is described as follows: XTT assay of metabolic activity in STHdhQ111 striatal cells. In kind it is cell-based, mouse. To be noted: 24 and 48 hrs. (In general: Tetrazolium dyes change colour on reduction, which living cells bring about.)
The subject of series [3] is class I and class II HDAC enzymes. The series can be described thus: HDAC subtype selectivity profile from IC50 values. To be noted: in words.
The target of series [4] is CYP2D6 (Homo sapiens, UniProt P10635). The series is described as follows: CYP2D6 inhibition in liver cells. In kind it is in vitro ADME. Particulars: read-out: CYP2D6 IC50; inhibition of cytochrome P450 enzymes in liver cells.
For series [5], the target named is CYP3A4 (Homo sapiens, UniProt P08684). The series can be described thus: CYP3A4 inhibition in liver cells. Particulars: read-out: CYP3A4 IC50; inhibition of cytochrome P450 enzymes in liver cells. Type of series: in vitro ADME.
Series [6] concerns Vdr and Dhrs4 expression in STHdhQ111 cells. The series can be described thus: Expression of Vdr and Dhrs4 in STHdhQ111 striatal cells. Type of series: cell-based, mouse.
For series [7], the target named is T1, HDAC8 (Homo sapiens, UniProt Q9BY41).
T1 sequence (Q9BY41 1-377): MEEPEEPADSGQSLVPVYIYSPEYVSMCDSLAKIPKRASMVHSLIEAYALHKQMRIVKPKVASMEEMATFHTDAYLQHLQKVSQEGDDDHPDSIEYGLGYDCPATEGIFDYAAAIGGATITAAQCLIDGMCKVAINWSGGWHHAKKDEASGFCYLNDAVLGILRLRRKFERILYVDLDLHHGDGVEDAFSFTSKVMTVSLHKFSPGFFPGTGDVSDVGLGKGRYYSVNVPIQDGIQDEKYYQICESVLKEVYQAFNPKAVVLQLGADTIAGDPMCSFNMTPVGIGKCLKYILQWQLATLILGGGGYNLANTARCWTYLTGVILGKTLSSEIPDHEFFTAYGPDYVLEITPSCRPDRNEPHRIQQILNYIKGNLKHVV
The series can be described thus: HDAC8 inhibition, recombinant enzyme cell-free assay. Particulars: read-out: IC50 for Class I HDAC enzymes: HDAC8; Table 1.

In series [8] the test system is HD-related gene expression in striatum, R6/2 transgenic mice. The series is described as follows: Real-time PCR of HD-related genes in striatum of R6/2 transgenic mice.
The target in series [9] is T2, HDAC7 (Homo sapiens, UniProt Q8WUI4).
T2 sequence (Q8WUI4 1-952): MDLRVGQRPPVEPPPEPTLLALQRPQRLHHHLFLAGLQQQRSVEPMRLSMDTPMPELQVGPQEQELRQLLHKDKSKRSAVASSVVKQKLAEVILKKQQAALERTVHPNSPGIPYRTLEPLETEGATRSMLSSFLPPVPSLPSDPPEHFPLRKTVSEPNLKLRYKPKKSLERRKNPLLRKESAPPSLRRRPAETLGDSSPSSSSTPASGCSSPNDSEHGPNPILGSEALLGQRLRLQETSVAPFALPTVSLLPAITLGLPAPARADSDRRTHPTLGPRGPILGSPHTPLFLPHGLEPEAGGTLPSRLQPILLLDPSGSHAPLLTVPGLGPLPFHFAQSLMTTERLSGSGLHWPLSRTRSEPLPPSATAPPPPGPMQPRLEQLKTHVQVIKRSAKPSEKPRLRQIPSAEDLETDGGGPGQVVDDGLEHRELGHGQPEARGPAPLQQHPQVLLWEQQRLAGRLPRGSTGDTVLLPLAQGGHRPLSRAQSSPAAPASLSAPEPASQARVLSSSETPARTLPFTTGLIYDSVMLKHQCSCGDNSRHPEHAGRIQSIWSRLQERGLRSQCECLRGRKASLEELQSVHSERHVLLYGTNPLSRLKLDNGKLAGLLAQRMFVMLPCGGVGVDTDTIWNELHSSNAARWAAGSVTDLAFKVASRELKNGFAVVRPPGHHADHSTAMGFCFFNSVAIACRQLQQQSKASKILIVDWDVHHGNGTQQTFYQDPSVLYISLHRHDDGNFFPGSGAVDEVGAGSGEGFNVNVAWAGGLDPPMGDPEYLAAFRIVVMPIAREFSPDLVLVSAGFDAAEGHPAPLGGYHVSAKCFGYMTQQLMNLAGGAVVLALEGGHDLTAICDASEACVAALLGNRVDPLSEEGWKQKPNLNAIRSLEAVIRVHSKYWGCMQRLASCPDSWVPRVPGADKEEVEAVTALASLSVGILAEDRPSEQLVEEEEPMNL
The series can be described thus: HDAC7 inhibition. Particulars: read-out: IC50 for Class II HDAC enzymes: HDAC7; Table 1.

Series [10] concerns the target HDAC4 (Homo sapiens, UniProt P56524). The series can be described thus: HDAC4 inhibition. Particulars: read-out: IC50 for Class II HDAC enzymes: HDAC4; Table 1.
The target of series [11] is HDAC2 (Homo sapiens, UniProt Q92769). The series can be described thus: HDAC2 inhibition, Fluor-de-Lys fluorescence assay with purified enzyme.
Series [12] addresses HDAC5 (Homo sapiens, UniProt Q9UQL6). The series is described as follows: HDAC5 inhibition. Particulars: read-out: IC50 for Class II HDAC enzymes: HDAC5; Table 1.
Series [13] deals with IMR90 cells. In kind it is cell-based, human. To be noted: read-out: Proliferation inhibition IMR90, IC50; 72h.

Chain of CYP2D6 (P10635 whole entry): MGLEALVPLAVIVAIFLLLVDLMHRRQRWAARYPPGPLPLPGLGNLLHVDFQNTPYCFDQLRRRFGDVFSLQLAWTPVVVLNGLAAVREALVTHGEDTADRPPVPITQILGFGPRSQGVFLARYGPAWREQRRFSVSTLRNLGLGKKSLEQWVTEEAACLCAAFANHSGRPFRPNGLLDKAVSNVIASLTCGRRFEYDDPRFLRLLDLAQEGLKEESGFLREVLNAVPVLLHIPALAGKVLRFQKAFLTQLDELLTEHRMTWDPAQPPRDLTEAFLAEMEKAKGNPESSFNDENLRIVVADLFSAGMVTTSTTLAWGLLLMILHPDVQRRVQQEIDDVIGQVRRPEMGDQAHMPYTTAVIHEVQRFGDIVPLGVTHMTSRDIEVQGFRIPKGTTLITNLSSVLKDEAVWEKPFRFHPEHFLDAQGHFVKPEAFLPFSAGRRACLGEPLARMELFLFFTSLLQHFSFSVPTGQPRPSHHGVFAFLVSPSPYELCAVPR
Chain of HDAC2 (Q92769 whole entry): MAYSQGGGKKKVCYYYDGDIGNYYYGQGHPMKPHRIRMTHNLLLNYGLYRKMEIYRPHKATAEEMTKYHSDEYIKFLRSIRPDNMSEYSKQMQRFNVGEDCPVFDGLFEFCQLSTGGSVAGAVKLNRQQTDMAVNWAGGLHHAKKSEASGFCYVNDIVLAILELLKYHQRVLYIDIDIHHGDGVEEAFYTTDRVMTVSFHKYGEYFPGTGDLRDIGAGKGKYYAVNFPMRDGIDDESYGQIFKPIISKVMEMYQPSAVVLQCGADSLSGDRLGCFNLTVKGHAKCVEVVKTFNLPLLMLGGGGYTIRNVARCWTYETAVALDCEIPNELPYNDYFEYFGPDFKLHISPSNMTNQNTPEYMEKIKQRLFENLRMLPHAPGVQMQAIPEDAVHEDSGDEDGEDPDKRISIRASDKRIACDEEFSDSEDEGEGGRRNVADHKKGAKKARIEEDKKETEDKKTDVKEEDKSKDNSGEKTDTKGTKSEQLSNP
Chain of CYP3A4 (P08684 whole entry): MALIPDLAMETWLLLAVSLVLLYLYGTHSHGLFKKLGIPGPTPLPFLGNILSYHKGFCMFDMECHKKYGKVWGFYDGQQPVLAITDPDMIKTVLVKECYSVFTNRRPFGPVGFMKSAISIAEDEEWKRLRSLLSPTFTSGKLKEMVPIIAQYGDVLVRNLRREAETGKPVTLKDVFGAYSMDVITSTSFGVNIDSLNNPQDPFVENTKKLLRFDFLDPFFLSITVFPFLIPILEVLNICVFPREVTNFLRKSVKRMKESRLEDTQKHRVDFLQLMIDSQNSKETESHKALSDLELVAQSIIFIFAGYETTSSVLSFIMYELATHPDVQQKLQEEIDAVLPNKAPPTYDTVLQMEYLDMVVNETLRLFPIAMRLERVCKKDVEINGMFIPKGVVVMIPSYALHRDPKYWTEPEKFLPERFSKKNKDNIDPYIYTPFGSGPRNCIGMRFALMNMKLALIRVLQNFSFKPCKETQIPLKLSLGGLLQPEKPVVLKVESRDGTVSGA
Chain of HDAC5 (Q9UQL6 whole entry, species assumed): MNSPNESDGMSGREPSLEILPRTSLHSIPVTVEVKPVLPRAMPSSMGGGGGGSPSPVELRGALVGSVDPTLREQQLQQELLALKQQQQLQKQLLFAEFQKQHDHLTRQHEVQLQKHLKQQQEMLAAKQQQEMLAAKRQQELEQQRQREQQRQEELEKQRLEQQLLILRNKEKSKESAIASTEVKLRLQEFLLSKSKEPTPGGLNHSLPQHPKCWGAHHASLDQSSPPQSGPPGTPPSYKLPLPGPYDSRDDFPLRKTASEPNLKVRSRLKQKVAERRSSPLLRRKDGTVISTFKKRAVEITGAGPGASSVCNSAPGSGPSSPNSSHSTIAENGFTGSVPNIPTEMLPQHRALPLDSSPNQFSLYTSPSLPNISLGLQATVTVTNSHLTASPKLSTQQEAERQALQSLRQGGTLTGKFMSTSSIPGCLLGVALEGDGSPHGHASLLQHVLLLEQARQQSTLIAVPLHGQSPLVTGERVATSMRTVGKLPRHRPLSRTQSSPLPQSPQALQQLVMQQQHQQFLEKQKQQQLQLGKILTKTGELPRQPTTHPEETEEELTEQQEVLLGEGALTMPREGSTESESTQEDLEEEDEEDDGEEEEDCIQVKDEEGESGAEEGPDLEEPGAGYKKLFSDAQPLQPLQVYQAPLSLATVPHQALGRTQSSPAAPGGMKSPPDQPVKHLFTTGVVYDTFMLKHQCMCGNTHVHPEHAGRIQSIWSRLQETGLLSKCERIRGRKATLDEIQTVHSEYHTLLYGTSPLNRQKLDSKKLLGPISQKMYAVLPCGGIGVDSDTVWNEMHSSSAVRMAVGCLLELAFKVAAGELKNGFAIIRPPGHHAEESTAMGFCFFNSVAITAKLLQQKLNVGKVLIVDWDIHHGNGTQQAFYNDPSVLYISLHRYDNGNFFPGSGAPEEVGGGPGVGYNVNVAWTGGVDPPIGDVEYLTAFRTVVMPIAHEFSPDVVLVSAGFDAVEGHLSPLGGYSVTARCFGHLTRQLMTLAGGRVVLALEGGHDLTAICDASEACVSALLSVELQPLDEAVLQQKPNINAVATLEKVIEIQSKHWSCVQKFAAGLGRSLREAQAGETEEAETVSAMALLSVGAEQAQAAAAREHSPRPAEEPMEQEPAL
Chain of HDAC4 (P56524 whole entry, species assumed): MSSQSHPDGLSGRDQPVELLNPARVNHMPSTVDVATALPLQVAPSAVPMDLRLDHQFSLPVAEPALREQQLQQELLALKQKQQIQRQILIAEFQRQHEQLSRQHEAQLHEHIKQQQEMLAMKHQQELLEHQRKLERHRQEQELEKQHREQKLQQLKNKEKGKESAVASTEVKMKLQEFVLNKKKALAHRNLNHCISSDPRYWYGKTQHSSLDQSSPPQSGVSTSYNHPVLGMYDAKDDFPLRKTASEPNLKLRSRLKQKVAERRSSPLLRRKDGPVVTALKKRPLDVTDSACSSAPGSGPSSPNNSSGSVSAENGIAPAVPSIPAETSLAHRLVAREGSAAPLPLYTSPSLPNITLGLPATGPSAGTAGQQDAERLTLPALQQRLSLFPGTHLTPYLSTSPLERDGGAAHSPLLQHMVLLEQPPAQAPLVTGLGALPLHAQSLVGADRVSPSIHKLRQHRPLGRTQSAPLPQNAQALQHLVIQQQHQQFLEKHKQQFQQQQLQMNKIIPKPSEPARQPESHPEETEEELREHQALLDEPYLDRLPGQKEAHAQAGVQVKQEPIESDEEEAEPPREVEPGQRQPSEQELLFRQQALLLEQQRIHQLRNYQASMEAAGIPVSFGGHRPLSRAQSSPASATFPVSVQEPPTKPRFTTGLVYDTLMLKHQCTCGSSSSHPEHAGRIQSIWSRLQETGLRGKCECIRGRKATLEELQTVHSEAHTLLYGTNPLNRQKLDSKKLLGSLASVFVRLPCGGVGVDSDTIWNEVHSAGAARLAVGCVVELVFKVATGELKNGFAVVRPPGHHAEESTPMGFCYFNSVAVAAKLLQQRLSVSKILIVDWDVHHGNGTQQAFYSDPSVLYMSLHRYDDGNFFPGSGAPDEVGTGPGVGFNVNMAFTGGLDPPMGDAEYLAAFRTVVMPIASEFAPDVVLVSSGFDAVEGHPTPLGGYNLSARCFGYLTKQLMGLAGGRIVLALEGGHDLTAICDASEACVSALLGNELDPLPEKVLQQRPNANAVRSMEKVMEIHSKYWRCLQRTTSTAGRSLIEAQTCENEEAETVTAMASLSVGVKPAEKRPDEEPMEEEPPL

`Cc1ccc(NC(=O)CCCCCC(=O)Nc2ccccc2N)cc1` [4b]: the EC50 in series [1] (read-out: EC50 for inhibition of proliferation of Hct116 cells) was 10 µM. Further, the IC50 in series [1] was 10 µM; in series [4], greater than 10 µM; in series [5], greater than 10 µM. Moreover, the “improvement of the metabolic deficit of STHdhQ111 cells, in words” value in series [2] is given as “significantly improved the metabolic deficit”. Further, in series [3], the “activity against the class II HDACs, HDAC 4, 5 and 7” value is “essentially no activity”. Further, the “reversal of gene expression deficits (Vdr, Dhrs4), in words” value in [6] is listed as “effective at reversing gene expression deficits”.
Turning to `Cc1ccc(C(=O)NCCCCCC(=O)Nc2ccc(F)cc2N)cc1` [compound 136], the IC50 in [7] is 13.2 µM; in series [1] it was 40 µM; in series [9], greater than 180 µM; in [10], greater than 180 µM; in series [4], greater than 10 µM; in series [11] (read-out: IC50 for Class I HDAC enzymes: HDAC2, Table 1), 3 µM. The figures for the IC50 in [12] and in series [13] were greater than 180 µM and greater than 50 µM, respectively. In [2], the “improvement of the metabolic deficit of STHdhQ111 cells, in words” value is on record as “significantly improved the metabolic deficit”. In addition, in series [8] (150 mg/kg s.c. three days, striatum), the “reversal of expression of genes relevant to HD, in words” value was “most effective”. For the same molecule, in series [8] (qRT-PCR), the “genes whose expression deficits were corrected, of 13 tested” value is listed as “eight of the 13 genes tested”.
On to `Nc1ccc(-c2cccs2)cc1NC(=O)CCCCCCNC(=O)c1cccnc1` [compound 233], for which the IC50 is greater than 10 µM in series [4]; 0.07 µM in series [11] (read-out: HDAC2 IC50, Table 2); 0.11 µM in [5].
